Experiment [1] has as its target T1, dopamine D2s receptor (Homo sapiens, UniProt P14416).
T1 construct: expressed in transfected cells; membranes used
Kind of experiment: D2 receptor binding assay (3H-raclopride displacement, membranes from D2s-transfected CHO cells). On the procedure:
(§1) In vitro experimental assays can generally be carried out as described herein. Briefly, CHO-K1 cells stably transfected with the dopamine D2s receptor can be used in the experiments and maintained in Ham's F12 culture medium supplemented with 2 mM L-glutamine, 10% FBS, and 500 μg/ml Hygromycin.
The ability of test compounds to displace ^3H-raclopride at the D2s receptor can be determined on membranes from D2s-transfected CHO cells (Bmax 13 pmol/mg protein). An assay can use a standard 96-well glass-fiber filter plate to retain radioligand bound by the receptor. Retained ^3H can be determined in a TopCount scintillation plate counter following the addition of a liquid scintillant to each well. Compounds can be evaluated for their potency using competition curve analysis, resulting in calculated Ki values.

For experiment [2], the target named is T1, dopamine D2s receptor. The experiment can be described thus: D2 receptor in vitro functional GTPγS assay (block of dopamine-stimulated [35S]-GTPγS binding). It is filed as biochemical. On the procedure:
as §1
GTPgS assay can be performed substantially as described by Lazareno, Methods in Molecular Biology, 1999, 106, 231-245. Antagonist activity of compounds can be determined by the ability of test compounds to block dopamine-stimulated [^35S]-GTPγS binding to cell membranes from D2s stably-transfected CHO cells.

In experiment [3] the target is T2, human norepinephrine transporter (Homo sapiens, UniProt P23975).
T2 construct: expressed in transfected cells
Kind of experiment: Norepinephrine uptake (fluorescent substrate, HEK293F cells). It is filed as cell-based. On the procedure: An assay for measuring norepinephrine uptake can be carried out as described below. Briefly, test compounds can be evaluated in an 11-point IC50 curve for their ability to inhibit uptake of a proprietary fluorescent substrate (dye) from Molecular Devices that mimics biogenic amine neurotransmitters. A stable population of HEK293F cells transfected with the human norepinephrine transporter (cultured in Freestyle 293 expression medium with […] hygromycin B) can be cryopreserved, then plated and used on the day of the assay. Cells can be at 60 K/well; dye can be 7% (final) of the vendor-recommended reconstitution volume (100%). Compounds can be diluted 1:20 in buffer and incubated with the cells for 30 minutes prior to addition of the dye. In this fluorescence intensity assay, plates can be read after a 20 minute dye incubation to determine percent effect with respect to total signal (0.5% DMSO, final) and background signal (10 μM desipramine, final). The IC50, half of the control response, can be converted to Ki using the using the standard Cheng-Prusoff equation.

The next experiment concerns the target H1 receptor (Homo sapiens, UniProt P35367). Kind of experiment: H1 receptor binding. The following applies: read-out: H1 Hu Bind Mean Ki. The text has this: H1 Receptor Binding The H1 receptor binding method can be carried out in accordance with De Backer et al., Biochem. Biophys. Res. Commun, 1993, 197(3), 1601.
For experiment [4], the system named is D-Amphetamine-induced Hyperlocomotor Activity. Kind of experiment: D-Amphetamine-induced hyperlocomotor activity (LMA) in habituated rat model. The experiment is classed as in vivo, male Long Evans rats. The following applies: D-amphetamine 1 mg/kg s.c. On the procedure:
Studies in vivo can be used to determine the antipsychotic effect and are generally carried out as follows. Briefly, D-Amphetamine-induced Hyperlocomotor Activity (LMA) in a Habituated Rat Model can be assessed in male Long Evans rats using a paradigm that includes a habituation phase followed by administration of 1 mg/kg D-amphetamine. Animals can be allowed to acclimatize to the testing room for 1 hour before being weighed and placed into activity chambers. Thirty minutes after LMA measurement is begun, animals can be briefly removed, dosed via the sub-cutaneous route (s.c.) with vehicle or test drug at different doses and returned to the chambers. After a further 30 minutes, animals can again be removed and dosed with vehicle or D-amphetamine at 1 mg/kg (s.c.). After returning the animals to the activity chambers, LMA can be assessed for a further 60 minutes. Haloperidol (0.1 mg/kg dissolved in H2O) can be administered 15 minutes prior to D-amphetamine via the s.c. route. Statistical analysis can be made of total distance traveled after D-amphetamine administration using ANOVA and Tukey's post hoc analysis where appropriate. All values can be expressed as Mean and SD.

Experiment [5] relates to Conditioned Avoidance Responding. Kind of experiment: Conditioned avoidance responding (CAR) assay. The experiment is classed as in vivo, Male Long-Evans rats. The following applies: rat. On the procedure:
Male Long-Evans rats can be trained to traverse to the opposite side of a standard shuttle cage following presentation of an auditory and visual stimulus to avoid delivery of electric shock to the floor of the cage. Daily sessions can consist of up to 80 trials. If a shock is delivered, animals have the opportunity to escape the shock by traversing to the opposite side of the cage. Drug can be administered (via s.c. or p.o. route) 60 minutes prior to testing and the percentage of trials in which shock is avoided and escaped can be recorded.

Setting [6] is: w/NaCl, read-out: D2 binding w/NaCl Ki.
Setting [7] is: antagonist mode, read-out: D2 Ant GTPγS IC50.
Setting [8] is: HEK cells, fluorescence intensity, read-out: hNET uptake HEK FLInt CR Mean Ki.

Like-named read-outs stand apart in the source and are kept apart here.

The results in this text go back to patent US20110160184A1, “Dibenzothiazepine Derivatives and Use Thereof” (ASTRAZENECA AB, priority 2008, published 2011).

T1 sequence (P14416 1-414 isoform P14416-2): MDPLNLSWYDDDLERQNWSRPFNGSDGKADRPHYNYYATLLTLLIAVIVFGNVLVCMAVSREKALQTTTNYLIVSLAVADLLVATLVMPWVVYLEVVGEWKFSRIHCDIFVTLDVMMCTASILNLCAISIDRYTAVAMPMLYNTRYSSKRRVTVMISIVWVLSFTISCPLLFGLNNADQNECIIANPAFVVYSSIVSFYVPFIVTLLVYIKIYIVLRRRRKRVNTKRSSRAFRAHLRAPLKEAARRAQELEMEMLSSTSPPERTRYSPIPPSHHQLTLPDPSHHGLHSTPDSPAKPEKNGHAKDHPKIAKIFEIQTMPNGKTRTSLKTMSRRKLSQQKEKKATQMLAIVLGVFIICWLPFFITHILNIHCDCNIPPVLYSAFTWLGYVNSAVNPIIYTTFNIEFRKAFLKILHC
Chain of H1 receptor (P35367 whole entry): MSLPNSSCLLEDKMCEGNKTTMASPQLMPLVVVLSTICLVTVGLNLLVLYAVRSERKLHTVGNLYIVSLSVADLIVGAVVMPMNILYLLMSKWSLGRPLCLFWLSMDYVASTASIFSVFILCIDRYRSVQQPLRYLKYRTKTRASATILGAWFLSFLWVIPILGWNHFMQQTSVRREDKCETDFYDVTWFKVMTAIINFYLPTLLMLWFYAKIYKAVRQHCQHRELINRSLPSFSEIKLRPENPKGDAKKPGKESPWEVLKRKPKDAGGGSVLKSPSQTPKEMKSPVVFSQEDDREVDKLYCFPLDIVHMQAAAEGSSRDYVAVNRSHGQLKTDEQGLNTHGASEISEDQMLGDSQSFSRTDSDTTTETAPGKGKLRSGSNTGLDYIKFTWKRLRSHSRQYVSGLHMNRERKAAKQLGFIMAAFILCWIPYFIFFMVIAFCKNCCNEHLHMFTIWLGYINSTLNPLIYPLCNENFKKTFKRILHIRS
T2 sequence (P23975 whole entry): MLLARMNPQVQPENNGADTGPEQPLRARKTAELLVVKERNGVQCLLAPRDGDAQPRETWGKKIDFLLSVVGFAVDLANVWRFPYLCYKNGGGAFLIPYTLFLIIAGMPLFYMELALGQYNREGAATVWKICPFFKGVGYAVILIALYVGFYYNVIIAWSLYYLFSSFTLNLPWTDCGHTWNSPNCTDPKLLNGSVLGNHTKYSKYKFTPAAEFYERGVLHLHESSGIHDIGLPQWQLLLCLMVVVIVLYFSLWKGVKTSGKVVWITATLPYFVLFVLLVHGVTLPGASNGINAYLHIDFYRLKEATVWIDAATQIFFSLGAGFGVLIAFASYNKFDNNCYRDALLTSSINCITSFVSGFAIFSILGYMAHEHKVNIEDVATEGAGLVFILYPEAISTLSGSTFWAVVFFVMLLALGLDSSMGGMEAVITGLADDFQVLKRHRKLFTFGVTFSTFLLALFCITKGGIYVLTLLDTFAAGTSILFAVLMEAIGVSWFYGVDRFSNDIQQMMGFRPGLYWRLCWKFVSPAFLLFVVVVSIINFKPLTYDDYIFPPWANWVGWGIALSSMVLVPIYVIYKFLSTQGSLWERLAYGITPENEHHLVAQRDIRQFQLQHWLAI

Take `CN1CCN(C2=Nc3ccccc3Sc3ccc(Cl)cc32)CC1` [2-Chloro-11-(4-methyl-piperazin-1-yl)-dibenzo[b,f][1,4]thiazepine]: the Ki at dopamine D2s receptor [1] (setting [6]) came to 0.49 nM. In addition, at dopamine D2s receptor [2] (setting [7]), the IC50 (in general, the concentration at which inhibition is half-maximal) came to 8.4 nM.

Consider `Clc1ccc2c(c1)C(N1CCNCC1)=Nc1ccccc1S2` [2-Chloro-11-piperazin-1-yl-dibenzo[b,f][1,4]thiazepine], for which the Ki came out at 0.7 nM on dopamine D2s receptor [1] (setting [6]), 41 nM in experiment [3] (setting [8]) and 3.87 nM at H1 receptor. The IC50 on dopamine D2s receptor [2] (setting [7]) was 35 nM.

Turning to `CN1CCN(C2=Nc3ccccc3Sc3ccc(F)cc32)CC1` [2-Fluoro-11-(4-methyl-piperazin-1-yl)-dibenzo[b,f][1,4]thiazepine], the Ki at dopamine D2s receptor [1] (setting [6]) is 1.1 nM; in experiment [3] (setting [8]) it was 59 nM; at H1 receptor it was 1.82 nM. Moreover, on dopamine D2s receptor [2] (setting [7]), the IC50 was 170 nM.

With `c1ccc2c(c1)N=C(N1CCNCC1)c1ccccc1S2` [11-Piperazin-1-yl-dibenzo[b,f][1,4]thiazepine], the Ki at dopamine D2s receptor [1] (setting [6]) came out at 37 nM; in experiment [3] (setting [8]) it was 24 nM; at H1 receptor, 3.33 nM. For the same compound, the IC50 on dopamine D2s receptor [2] (setting [7]) is 800 nM.

With `Fc1ccc2c(c1)C(N1CCNCC1)=Nc1ccccc1S2` [Example 1, 2-fluoro-11-(piperazin-1-yl)dibenzo[b,f][1,4]thiazepine], the Ki on dopamine D2s receptor [1] (3H-raclopride, D2s-transfected CHO cell membranes, one average result, read-out: D2 binding Ki) was roughly 11 nM; on dopamine D2s receptor [1] (setting [6]) it was 11 nM; in experiment [3] (HEK293F cells with human NET, Cheng-Prusoff from IC50, one average result, read-out: NET inhibition Ki) it was roughly 10 nM; in experiment [3] (setting [8]) it was 9.6 nM. Also, the IC50 was 400 nM on dopamine D2s receptor [2] (setting [7]) and roughly 404 nM at dopamine D2s receptor [2] (antagonist, dopamine-stimulated [35S]-GTPγS binding, D2s CHO membranes, one average result, read-out: GTPγS IC50). Further, the “activity in D-amphetamine-induced LMA” value in experiment [4] (30 mg/kg (sc)) and in experiment [4] (60 mg/kg (sc)) was “showed activity” in each case. For the same compound, the “activity in conditioned avoidance responding” value in experiment [5] (30 mg/kg (sc)) and in experiment [5] (60 mg/kg (sc)) was “showed activity” each time.
